Measurements taken from patent US20260357349A1, “METHODS OF IDENTIFYING AND TREATING CANCER” (Agency for Science, Technology and Research, priority 2022, published 2026).

Columns and labels:
[1] = test system: RELA occupancy on the chromatin (786-O cells); assay: RELA ChIP after bortezomib, 786-O; assay type: cell-based, human
Method: (§1) Colony formation of parental (WT) or PBRM1 knockout (KO) 786-O cells expressing shRNA against non-targeting control (NC), RELA, or NFKB1 cultured with a) 10% or b) 2% serum. c) Gene expression changes of NF-κB target genes in 786-O cells treated with 0.006 μM bortezomib (BTZ) or 0.6 µM Bay 11-7085 for 24 hours (n=3 technical replicates). * p-value<0.05 (two-sided t-test). […] A positive log fold change refers to gain in bortezomib treatment over DMSO. g) Colony formation of 786-O isogenic cells and h) NCC432 isogenic cells treated with bortezomib for a week. Tumor formation of isogenic 786-O cells (i) and NCC432 cells (j) treated with PBS control or 0.5 mg/kg bortezomib (BTZ) in NSG mice. (n=10 tumors per group for 786-O, and n=16 tumors for NCC432 PBS EV group and 12 tumors for NCC432 PBS PBRM1 group and 14 tumors for both NCC432 EV and PBRM1 BTZ groups). Data are presented as mean values+/−SEM. k) Model for the study.
Data are presented as median+/−25%. Lower whisker is smallest observation greater than or equal to 25% quantile-1.5*interquantile range (IQR). Upper whisker represents the largest observation less than or equal to 75%+1.5*IQR. Amount of normalized RELA protein in the c) input or d) co-immunoprecipitated with SMARCA4 from 3 independent runs. […]

[2] = test system: NF-κB target genes (786-O cells); assay: RT-qPCR of NF-κB target genes after NF-κB inhibitor, 786-O; assay type: cell-based, human; conditions: 0.006 μM bortezomib or 0.6 µM Bay 11-7085, 24 hours
Method: as §1

Compound: CC(C)C[C@H](NC(=O)[C@H](Cc1ccccc1)NC(=O)c1cnccn1)B(O)O [bortezomib]
- RELA occupancy (figure title) ([1]; 786-O, 0.005 μM bortezomib, 9 hours): abrogates RELA occupancy
- RELA occupancy on the chromatin, PB1 KO ([1]; PB1 KO 786-O cells, ChIP-qPCR): profound reduction of RELA occupancy
- suppressing the expression of NF-κB target genes [2]: effective at suppressing the expression of NF-κB target genes
